Results as given in patent US20250089720A1, “FUNGICIDAL MIXTURES COMPRISING COMBINATION CONTAINING PHTHALIMIDE” (Adama Makhteshim Ltd., priority 2022, published 2025).

Key:
[1] = tested on: Ramularia (Ramularia collo-cygni) in barley; assay: fungicidal activity toward Ramularia in barley, protected conditions; assay type: in vivo
Excerpt: The following fungicides and combination of fungicides are applied to ramularia in barley. The observation was made 10 days after application. The results are shown below: The following fungicides and combination of fungicides are applied to ramularia in barley. The observation was made 24 days after application.

[2] = tested on: Septoria Tritici Blotch (STB) (Zymoseptoria tritici); assay: glasshouse fungicidal efficacy against Septoria Tritici Blotch on winter wheat; details: Abbott's transformation
Description: The study design was a randomized complete block with 4 replicates.
The treatments were applied in accordance with Table 14, and on the day after application, artificial inoculation of the target was performed by spraying the inoculum solution at the concentration of 1×10^6 cfu/ml on the leaves. The compositions were diluted in a water volume equivalent to 400 L/ha.
Analysis of Variance (ANOVA) and a Bartlett test to assume the homogeneity of the treatment variances were performed on each assessment. Data were analyzed using ANOVA.
Evaluations were performed on incidence and severity of Septoria on leaves and transformed into percentage of disease control using the Abbott's transformation.

## Cc1ccc(S(=O)(=O)n2cc(F)c(=N)n(C)c2=O)cc1 [ADF-16]
[1]; ADF-16 25 g a.i./ha, 10 days after application
  Observed Efficacy: 45.70%
[1]; ADF-16 25 g a.i./ha, 24 days after application
  Observed Efficacy: 44.50%
[1]; ADF-16 35 g a.i./ha, 10 days after application
  Observed Efficacy: 55.00%
[1]; ADF-16 35 g a.i./ha, 24 days after application
  Observed Efficacy: 45.60%

## O=C1c2ccccc2C(=O)N1SC(Cl)(Cl)Cl [Folpet, folpet]
[1]; Folpet 175 g a.i./ha, 10 days after application
  Observed Efficacy: 25.10%
[1]; Folpet 175 g a.i./ha, 24 days after application
  Observed Efficacy: 21.60%
[1]; Folpet 300 g a.i./ha, 10 days after application
  Observed Efficacy: 61.10%
[1]; Folpet 300 g a.i./ha, 24 days after application
  Observed Efficacy: 31.00%
[1]; Folpet 400 g a.i./ha, 10 days after application
  Observed Efficacy: 64.80%
[1]; Folpet 400 g a.i./ha, 24 days after application
  Observed Efficacy: 49.80%
[2]; Folpet 500 g AI/ha
  Disease control on severity on leaves: 41.6%

## CC(O)(Cn1cncn1)c1ccc(Oc2ccc(Cl)cc2)cc1C(F)(F)F (stereo not drawn) [Mefentrifluconazole]
[2]; Mefentrifluconazole 100 g AI/ha
  Disease control on severity on leaves: 49.9%
